This passage reports IC50 results from patent publication US20180148429A1 (SELVITA S.A., priority 2015, published 2018).

The target of the first test is T1, Human recombinant His-tagged PFKFB3 (Homo sapiens, UniProt Q16875).
T1 construct: His; made in house
T1 sequence (Q16875 whole entry): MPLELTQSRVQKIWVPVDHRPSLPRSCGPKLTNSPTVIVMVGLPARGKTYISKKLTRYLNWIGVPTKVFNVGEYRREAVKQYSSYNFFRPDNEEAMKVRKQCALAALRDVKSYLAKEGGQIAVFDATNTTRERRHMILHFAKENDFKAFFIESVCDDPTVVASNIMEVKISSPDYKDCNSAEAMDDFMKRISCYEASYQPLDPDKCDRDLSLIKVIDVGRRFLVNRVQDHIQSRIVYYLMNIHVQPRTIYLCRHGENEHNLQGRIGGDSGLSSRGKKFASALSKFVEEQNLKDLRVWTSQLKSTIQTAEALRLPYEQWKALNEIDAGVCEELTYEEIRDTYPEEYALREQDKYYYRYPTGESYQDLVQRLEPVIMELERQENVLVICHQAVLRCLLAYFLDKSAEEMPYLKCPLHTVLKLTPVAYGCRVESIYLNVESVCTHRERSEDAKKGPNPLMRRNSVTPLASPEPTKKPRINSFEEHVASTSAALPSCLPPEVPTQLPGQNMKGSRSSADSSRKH
Put plainly: PFKFB3 IC50 determination assay (in vitro kinase assay, modified ADP-Glo system). The format is biochemical.
Conditions: not given
As for the experimental part: PFKFB3 IC50 Determination Assay
In vitro kinase assay used to determine IC50 values for tested inhibitors is based on a modified ADP-Glo™ system (Promega) and consists of two parts:
1. Kinase reaction—performed in optimized conditions. At this step PFKFB3 phosphorylates its substrate fructose-6-phosphate using ATP as a source of phosphate to produce fructose-2,6-bisphosphate and ADP. Reaction is performed at Km values for ATP and substrate using optimized buffer composition and time of the reaction. Human recombinant His-tagged PFKFB3 (PFKFB3 BATCH II SEC) with confirmed activity is produced and purified in-house.
2. Detection of ADP as a product of the reaction using ADP-Glo™ system. This part is conducted by using the commercially available kit ADP-Glo™ Kinase Assay (Promega, cat. No# V9103) according to manufacturer's instruction, modified by 5× dilutions of assay reagents (both ADP-Glo™ Reagent and Kinase Detection Solution).
Test compounds are dissolved in DMSO and then transferred to the V-bottom 96-well plate.
15 μL per well of Mix 1 is transferred to assay wells of 96-well white plate. […] Total reaction volume is 30 μL per well. Samples are tested in duplicates. Final concentration of DMSO in the reaction is 6.7%. Conditions needed for performing PFKFB3 (PFKFB3 BATCH II SEC) in vitro kinase assay are given below:
This protocol is based on Technical Bulletin, ADP-Glo™ Kinase Assay (Promega) and is adapted to 96-well plate containing 30 μL reaction mixture:
The plate is incubated for 90 minutes on a shaker at rt. […] Plate is incubated for 40 minutes on a shaker at rt, protected from light. Luminescence is measured in the plate reader Synergy 2 (BioTek).
Luminescent readouts for compounds tested in 10 concentrations (routinely from 100 μM to […], […] serial dilutions) in duplicates, as well as for positive control, are first normalized to no-substrate negative control by its subtraction. In the next step, % of normalized positive control is calculated for each data point and plotted against test compound concentration:
% of control—percent of positive control normalized to no-substrate negative control Lumcpd—luminescence of test compound Lumneg—luminescence of no-substrate negative control Lumpos—luminescence of positive control
IC50 parameter is determined by the GraphPad Prism 5.0 software
[log(inhibitor) vs. response−Variable slope (four parameters)].
With `Cc1nc(CNc2cc(-c3ccc4ccn(C)c4c3)c3nccnc3c2)n[nH]1` [Example 283, N-[(5-methyl-1H-1,2,4-triazol-3-yl)methyl]-8-(1-methyl-1H-indol-6-yl)quinoxalin-6-amine], the half-maximal inhibitory concentration (IC50) is 1 to 10 µM.
As for `Cn1ccc2ccc(-c3cc(NC(c4ccncc4)C4CCNCC4)cc4nccnc34)cc21` (stereo not drawn) [Example 228], the IC50 was 10 to 100 µM.

The test is the same for the next values; noted with them: ADP-Glo; ATP 20 μM (Km), fructose-6-phosphate 2 μM (Km), 25 nM PFKFB3, 2 h, rt; read-out: PFKFB3 IC50.
As to `CC(=O)N1CCC(C(Nc2cc(-c3ccc4scc(C)c4c3)c3nccnc3c2)c2cccnc2)CC1` (stereo not drawn) [Example 270, 1-[4-({[8-(3-methyl-1-benzothiophen-5-yl)quinoxalin-6-yl]amino}(pyridin-3-yl)methyl)piperidin-1-yl]ethan-1-one], the IC50 lay in the range of 0.001 to 1 µM.
Consider `Cn1ccc2ccc(-c3cc(NC4CCN(S(C)(=O)=O)C4)cc4nccnc34)cc21` (stereo not drawn) [Example 163], for which the IC50 was in the range of 0.001 to 1 µM.
With `CC(=O)N1CCC(C(Nc2cc(-c3ccc4occ(C)c4c3)c3nccnc3c2)c2cccnc2)CC1` (stereo not drawn) [Example 233], the IC50 lay within 0.001 to 1 µM.
`CC(C)C(=O)N1CCC(C(Nc2cc(-c3ccc4ccn(C)c4c3)c3nccnc3c2)c2cccnc2)CC1` (stereo not drawn) [Example 237]: the 50% inhibitory concentration (IC50) is 0.001 to 1 µM.
Same read-out and setting: the figure for `Cc1cc(CNc2cc(-c3ccc4ccn(C)c4c3)c3nccnc3c2)sn1` [Example 280, N-[(3-methyl-1,2-thiazol-5-yl)methyl]-8-(1-methyl-1H-indol-6-yl)quinoxalin-6-amine] is 1 to 10 µM.
With `Cc1csc2ccc(-c3cc(NC(c4cccnc4)C4CCNCC4)cc4nccnc34)cc12` (stereo not drawn) [Example 268, 8-(3-methyl-1-benzothiophen-5-yl)-N-[piperidin-4-yl(pyridin-3-yl)methyl]quinoxalin-6-amine], the IC50 lay within 0.001 to 1 µM.
Regarding `CC(=O)N1CCC(C(Nc2cc(-c3ccc4ccn(C)c4c3)c3nccnc3c2)c2cnccc2C)CC1` (stereo not drawn) [Example 287, 1-[4-({[8-(1-methyl-1H-indol-6-yl)quinoxalin-6-yl]amino}(4-methylpyridin-3-yl)methyl)piperidin-1-yl]ethan-1-one], the IC50 is 0.001 to 1 µM.
For `CCN(CC)C(=O)CN1CCC(C(Nc2cc(-c3ccc4ccn(C)c4c3)c3nccnc3c2)c2cccnc2)CC1` (stereo not drawn) [Example 277, N,N-diethyl-2-[4-({[8-(1-methyl-1H-indol-6-yl)quinoxalin-6-yl]amino}(pyridin-3-yl)methyl)piperidin-1-yl]acetamide], the IC50 lay within 1 to 10 µM.
On the same count and under the same terms, the figure for `Cn1ccc2ccc(-c3cc(NC(c4cccnc4)C4CCN(CC(N)=O)CC4)cc4nccnc34)cc21` (stereo not drawn) [compound 253, 2-[4-({[8-(1-methyl-1H-indol-6-yl)quinoxalin-6-yl]amino}(pyridin-3-yl)methyl)piperidin-1-yl]acetamide] is 0.001 to 1 µM; for `CC(=O)N1CCC([C@@H](Nc2cc(-c3ccc4scc(C)c4c3)c3nccnc3c2)c2cccnc2)CC1` [Example 310, 1-{4-[(R)-{[8-(3-methyl-1-benzothiophen-5-yl)quinoxalin-6-yl]amino}(pyridin-3-yl)methyl]piperidin-1-yl}ethan-1-one] it is 1 to 10 µM; for `Cn1ccc2ccc(-c3cc(NC(c4cccnc4)C4CCC(N)CC4)cc4nccnc34)cc21` (stereo not drawn) [Example 308, N-[(4-aminocyclohexyl)(pyridin-3-yl)methyl]-8-(1-methyl-1H-indol-6-yl)quinoxalin-6-amine] it is 0.001 to 1 µM.
As to `CCC(=O)N1CCC(Nc2cc(-c3ccc4ccn(C)c4c3)c3nccnc3c2)C1` (stereo not drawn) [Example 164], the IC50 is 1 to 10 µM.
On the same count and under the same terms, the result for `Cn1ccc2ccc(-c3cc(NC4CCN(C(=O)C5CC5)C4)cc4nccnc34)cc21` (stereo not drawn) [Example 162] reads 1 to 10 µM; that for `Cn1cnc(C(Nc2cc(-c3ccc4ccn(C)c4c3)c3nccnc3c2)c2cccnc2)c1` (stereo not drawn) [Example 290, N-[(1-methyl-1H-imidazol-4-yl)(pyridin-3-yl)methyl]-8-(1-methyl-1H-indol-6-yl)quinoxalin-6-amine], 1 to 10 µM; that for `CNC(=O)N1CCC(C(Nc2cc(-c3ccc4ccn(C)c4c3)c3nccnc3c2)c2cccnc2)CC1` (stereo not drawn) [Example 298, N-methyl-4-({[8-(1-methyl-1H-indol-6-yl)quinoxalin-6-yl]amino}(pyridin-3-yl)methyl)piperidine-1-carboxamide], 0.001 to 1 µM.
Regarding `CC(=O)N1CCCC(CN(c2cccnc2)c2cc(-c3ccc4ccn(C)c4c3)c3nccnc3c2)C1` (stereo not drawn) [Example 224], the IC50 lay within 0.001 to 1 µM.
In the case of `Cn1ccc2ccc(-c3cc(N(Cc4cccnc4)c4cnccc4S(C)(=O)=O)cc4nccnc34)cc21` [Example 220], the IC50 lay within 10 to 100 µM.
With `Cn1ccc2ccc(-c3cc(NCc4ccns4)cc4nccnc34)cc21` [Example 281, 8-(1-methyl-1H-indol-6-yl)-N-[(1,2-thiazol-5-yl)methyl]quinoxalin-6-amine], the IC50 lay within 0.001 to 1 µM.
As for `CN(C)C(=O)CC(Nc1cc(-c2ccc3ccn(C)c3c2)c2nccnc2c1)c1cccnc1` (stereo not drawn) [Example 273, N,N-dimethyl-3-{[8-(1-methyl-1H-indol-6-yl)quinoxalin-6-yl]amino}-3-(pyridin-3-yl)propanamide], the IC50 lay within 1 to 10 µM.
For the compound `COc1ccc(C(Nc2cc(-c3ccc4ccn(C)c4c3)c3nccnc3c2)c2cncn2C)cn1` (stereo not drawn) [Example 314, N-[(6-methoxypyridin-3-yl)(1-methyl-1H-imidazol-5-yl)methyl]-8-(1-methyl-1H-indol-6-yl)quinoxalin-6-amine], the IC50 is 0.001 to 1 µM.
On to `COc1ccc([C@@H](Nc2cc(-c3ccc4scc(C)c4c3)c3nccnc3c2)c2cnnn2C)cn1` [Example 323, N-[(R)-(6-methoxypyridin-3-yl)(1-methyl-1H-1,2,3-triazol-5-yl)methyl]-8-(3-methyl-1-benzothiophen-5-yl)quinoxalin-6-amine], for which the IC50 lay in the range of 0.001 to 1 µM.
For the compound `CC(C)C(=O)N1CCC(Nc2cc(-c3ccc4ccn(C)c4c3)c3nccnc3c2)C1` (stereo not drawn) [Example 166], the IC50 lay within 1 to 10 µM.
As for `Cn1cc(CNc2cc(-c3ccc4ccn(C)c4c3)c3nccnc3c2)cn1` [Example 306, 8-(1-methyl-1H-indol-6-yl)-N-[(1-methyl-1H-pyrazol-4-yl)methyl]quinoxalin-6-amine], the IC50 fell in the range of 1 to 10 µM.
In the case of `CC(=O)N1CC(C(Nc2cc(-c3ccc4ccn(C)c4c3)c3nccnc3c2)c2cccnc2)C1` (stereo not drawn) [Example 289, 1-[3-({[8-(1-methyl-1H-indol-6-yl)quinoxalin-6-yl]amino}(pyridin-3-yl)methyl)azetidin-1-yl]ethan-1-one], the IC50 lay within 1 to 10 µM.
For `COc1ccc([C@H](Nc2cc(-c3ccc4scc(C)c4c3)c3nccnc3c2)c2cnnn2C)cn1` [Example 324, N-[(S)-(6-methoxypyridin-3-yl)(1-methyl-1H-1,2,3-triazol-5-yl)methyl]-8-(3-methyl-1-benzothiophen-5-yl)quinoxalin-6-amine], the IC50 was 0.001 to 1 µM.
Take `COc1ccc(C(Nc2cc(-c3ccc4ccn(C)c4c3)c3nccnc3c2)c2ccnn2C)cn1` (stereo not drawn) [Example 317, N-[(6-methoxypyridin-3-yl)(1-methyl-1H-pyrazol-5-yl)methyl]-8-(1-methyl-1H-indol-6-yl)quinoxalin-6-amine]: the IC50 is 1 to 10 µM.
Consider `CC(Nc1cc(-c2ccc3ccn(C)c3c2)c2nccnc2c1)c1cnccc1-c1cnn(C)c1` (stereo not drawn) [Example 241], for which the IC50 was 0.001 to 1 µM.
`CC(=O)Nc1ccc(C(Nc2cc(-c3ccc4ccn(C)c4c3)c3nccnc3c2)c2cccnc2)cn1` (stereo not drawn) [Example 307, N-[5-({[8-(1-methyl-1H-indol-6-yl)quinoxalin-6-yl]amino}(pyridin-3-yl)methyl)pyridin-2-yl]acetamide]: the IC50 is 10 to 100 µM.
